Experimental data from US11596644B2, “Method for treating post-prandial hypoglycemia” (AVOLYNT, priority 2018, dated 2023).

Assays:
rat SGLT1 = target: T1, rat SGLT1 (Rattus norvegicus, UniProt P53790); assay: Inhibition of radiolabeled α-MG uptake into COS-7 cells transfected with rat SGLT1 (Dixon plot); assay type: cell-based
T1 construct: expressed in transfected cells; host or cells: COS-7
T1 sequence (P53790 1-665): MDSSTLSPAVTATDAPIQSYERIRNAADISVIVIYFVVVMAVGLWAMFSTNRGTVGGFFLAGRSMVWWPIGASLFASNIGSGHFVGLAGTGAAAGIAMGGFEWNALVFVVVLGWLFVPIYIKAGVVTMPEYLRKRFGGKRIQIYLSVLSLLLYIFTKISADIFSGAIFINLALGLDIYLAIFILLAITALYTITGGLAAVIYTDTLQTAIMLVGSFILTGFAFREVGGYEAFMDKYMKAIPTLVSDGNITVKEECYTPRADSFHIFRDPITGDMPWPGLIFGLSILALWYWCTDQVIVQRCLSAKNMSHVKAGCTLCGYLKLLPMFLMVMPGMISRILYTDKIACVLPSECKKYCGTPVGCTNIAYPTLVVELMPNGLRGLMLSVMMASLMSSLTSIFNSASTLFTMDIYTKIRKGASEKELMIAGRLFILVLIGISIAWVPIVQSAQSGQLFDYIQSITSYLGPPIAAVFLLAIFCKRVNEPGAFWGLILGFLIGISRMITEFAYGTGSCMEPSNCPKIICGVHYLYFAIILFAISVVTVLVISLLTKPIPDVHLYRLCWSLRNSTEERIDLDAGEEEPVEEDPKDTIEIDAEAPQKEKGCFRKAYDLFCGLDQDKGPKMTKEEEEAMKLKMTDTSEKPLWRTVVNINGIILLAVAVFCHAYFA
Method: (§1) Selective inhibition study. Inhibition constants (Ki) of mizagliflozin for rat and human SGLT1 and SGLT2 were determined measuring concentration-dependent effects of test compound on uptake of radiolabeled methyl-α-D-glucopyranoside (α-MG) into COS-7 cells transiently transfected with cloned SGLT1 or SGLT2. Mizagliflozin was assessed at concentrations from 1 to 30 μM and 3 to 100 μM for human and rat SGLT2, respectively. It was assessed at concentrations from 30 nM to 1 μM and 10 to 30 nM for human and rat SGLT1, respectively. α-MG test concentrations were 0.3 and 1 mM. Data were analyzed and Ki determined using Dixon plots of initial transport rates. […] Inhibition constants were also determined for human SGLT1 and SGLT2.

human SGLT1 = target: T2, human SGLT1 (Homo sapiens, UniProt P13866); assay: Inhibition of radiolabeled α-MG uptake into COS-7 cells transfected with human SGLT1 (Dixon plot); assay type: cell-based
T2 construct: expressed in transfected cells; host or cells: COS-7
T2 sequence (P13866 1-664): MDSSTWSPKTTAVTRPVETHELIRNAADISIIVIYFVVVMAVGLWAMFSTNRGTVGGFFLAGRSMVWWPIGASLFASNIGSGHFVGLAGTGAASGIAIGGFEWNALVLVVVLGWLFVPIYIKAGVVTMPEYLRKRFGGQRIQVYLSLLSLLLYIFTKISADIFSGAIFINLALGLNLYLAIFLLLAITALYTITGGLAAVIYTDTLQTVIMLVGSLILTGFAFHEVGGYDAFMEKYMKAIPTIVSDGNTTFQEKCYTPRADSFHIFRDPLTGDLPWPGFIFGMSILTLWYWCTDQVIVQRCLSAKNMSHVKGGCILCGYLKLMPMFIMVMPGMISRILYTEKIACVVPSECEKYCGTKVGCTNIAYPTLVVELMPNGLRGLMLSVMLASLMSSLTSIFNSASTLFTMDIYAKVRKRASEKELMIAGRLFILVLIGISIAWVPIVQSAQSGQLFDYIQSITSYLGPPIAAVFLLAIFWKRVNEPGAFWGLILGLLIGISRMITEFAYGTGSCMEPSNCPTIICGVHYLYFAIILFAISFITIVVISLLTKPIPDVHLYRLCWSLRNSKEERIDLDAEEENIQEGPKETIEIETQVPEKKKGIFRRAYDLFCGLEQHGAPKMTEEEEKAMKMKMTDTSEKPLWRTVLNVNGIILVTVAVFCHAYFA
Method: as §1

[1] = system: healthy adult male volunteers; assay: Repeat dose study in humans, pharmacodynamic parameters after meals; assay type: in vivo, human; settings: repeat dosing; for AUC 0-5 GIP / AUC 0-5 GLP-1 (active) / AUC 0-5 Insulin / AUC 0-5 glucose / GIP (peak) / GLP-1 (active) (peak) / Glucose (peak) / Insulin (peak) / Time (h) to peak, GIP / Time (h) to peak, GLP-1 (active) / Time (h) to peak, glucose / Time (h) to peak, insulin: Day 3 after breakfast
Method: Repeat dose study in humans. Oral doses of 2 mg, 5 mg, 10 mg, 20 mg, of mizagliflozin, placebo or miglitol 50 mg per dose three times daily to healthy adult male volunteers by a randomized, placebo-controlled, parallel-group, double-blind comparison method. The dose was orally administered with approximately 150 mL of water once daily immediately before breakfast on Days 1 and 13, and three times daily immediately before every meal on Days 3 to 12.
Changes in the following parameters and ΔAUC from 0 to t* hours after breakfast, lunch, and evening meal were measured: Blood glucose level, Serum insulin concentration, Blood active GLP-1 concentration, and Blood total GIP concentration, where t=0.5, 1, 1.5, 2, and 3 (t=0.5, 1, 1.5, 2, 3, and 5 only after breakfast).
In the miglitol group, hyperglycemia was suppressed after breakfast, lunch, and evening meal, as compared to the placebo group. […] These pharmacodynamic effects more or less persisted during 10-day repeated administration. There was no correlation between plasma mizagliflozin concentration and the pharmacodynamic effects. Measurements in Tables 5-8 were performed on Day 3 after breakfast.

Cc1cc(OCCCNCC(C)(C)C(N)=O)ccc1Cc1c(O[C@@H]2O[C@H](CO)[C@@H](O)[C@H](O)[C@H]2O)n[nH]c1C(C)C [mizagliflozin, 3-(3-{4-[3-(β-D-glucopyranosyloxy)-5-isopropyl-1H-pyrazol-4-ylmethyl-]-3-methylphenoxy}propylamino)-2,2-dimethylpropionamide]
mode of inhibition of SGLT1 (Dixon plot intersection pattern) (rat SGLT1; rat SGLT1): competitive with substrate | Ki (rat SGLT1; α-MG 0.3 and 1 mM, COS-7 cells): 31.2 nM | mode of inhibition of SGLT1 (Dixon plot intersection pattern) (human SGLT1; human SGLT1): competitive with substrate | Ki (human SGLT1; α-MG 0.3 and 1 mM, COS-7 cells, read-out: inhibition constant for human SGLT1): 27 nM | AUC 0-5 GIP ([1]; 2 mg per dose): 1096.21 pg·h/mL | AUC 0-5 GLP-1 (active) ([1]; 2 mg per dose): 21.21 pmol·h/L | AUC 0-5 Insulin ([1]; 2 mg per dose): 166.61 uU*h/ml | AUC 0-5 glucose ([1]; 2 mg per dose): 550.6 mg·h/dL | GIP (peak) ([1]; 2 mg per dose): 285 pg/mL | GLP-1 (active) (peak) ([1]; 2 mg per dose): 5.98 pmol/L | Glucose (peak) ([1]; 2 mg per dose): 131.6 mg/dL | Insulin (peak) ([1]; 2 mg per dose): 58.05 uU/ml | Time (h) to peak, GIP ([1]; 2 mg per dose): 3 h | Time (h) to peak, GLP-1 (active) ([1]; 2 mg per dose): 0.5 h | Time (h) to peak, glucose ([1]; 2 mg per dose): 1 h | Time (h) to peak, insulin ([1]; 2 mg per dose): 1.5 h | AUC 0-5 GIP ([1]; 5 mg per dose): 1057.89 pg·h/mL | AUC 0-5 GLP-1 (active) ([1]; 5 mg per dose): 22.36 pmol·h/L | AUC 0-5 Insulin ([1]; 5 mg per dose): 146.08 uU*h/ml | AUC 0-5 glucose ([1]; 5 mg per dose): 524.6 mg·h/dL | GIP (peak) ([1]; 5 mg per dose): 280.88 pg/mL | GLP-1 (active) (peak) ([1]; 5 mg per dose): 5.95 pmol/L | Glucose (peak) ([1]; 5 mg per dose): 118.6 mg/dL | Insulin (peak) ([1]; 5 mg per dose): 44 uU/ml | Time (h) to peak, GIP ([1]; 5 mg per dose): 3 h | Time (h) to peak, GLP-1 (active) ([1]; 5 mg per dose): 0.5 h | Time (h) to peak, glucose ([1]; 5 mg per dose): 1.5 h | Time (h) to peak, insulin ([1]; 5 mg per dose): 2 h | AUC 0-5 GIP ([1]; 10 mg per dose): 839.7 pg·h/mL | AUC 0-5 GLP-1 (active) ([1]; 10 mg per dose): 41.12 pmol·h/L | AUC 0-5 Insulin ([1]; 10 mg per dose): 176.7 uU*h/ml | AUC 0-5 glucose ([1]; 10 mg per dose): 541.3 mg·h/dL | GIP (peak) ([1]; 10 mg per dose): 240.75 pg/mL | GLP-1 (active) (peak) ([1]; 10 mg per dose): 10.01 pmol/L | Glucose (peak) ([1]; 10 mg per dose): 121.3 mg/dL | Insulin (peak) ([1]; 10 mg per dose): 55.13 uU/ml | Time (h) to peak, GIP ([1]; 10 mg per dose): 3 h | Time (h) to peak, GLP-1 (active) ([1]; 10 mg per dose): 0.5 h | Time (h) to peak, glucose ([1]; 10 mg per dose): 1.5 h | Time (h) to peak, insulin ([1]; 10 mg per dose): 1 h | AUC 0-5 GIP ([1]; 20 mg per dose): 755.01 pg·h/mL | AUC 0-5 GLP-1 (active) ([1]; 20 mg per dose): 24.74 pmol·h/L | AUC 0-5 Insulin ([1]; 20 mg per dose): 142.25 uU*h/ml | AUC 0-5 glucose ([1]; 20 mg per dose): 522.4 mg·h/dL | GIP (peak) ([1]; 20 mg per dose): 217.15 pg/mL | GLP-1 (active) (peak) ([1]; 20 mg per dose): 6.01 pmol/L | Glucose (peak) ([1]; 20 mg per dose): 121 mg/dL | Insulin (peak) ([1]; 20 mg per dose): 47.69 uU/ml | Time (h) to peak, GIP ([1]; 20 mg per dose): 3 h | Time (h) to peak, GLP-1 (active) ([1]; 20 mg per dose): 0.5 h | Time (h) to peak, glucose ([1]; 20 mg per dose): 1.5 h | Time (h) to peak, insulin ([1]; 20 mg per dose): 1.5 h | active GLP-1 concentration ([1]; healthy adult male volunteers): a tendency toward increase in active GLP-1 concentration was seen | hyperglycemia after breakfast, lunch, and evening meal ([1]; healthy adult male volunteers): suppressed after breakfast, lunch, and evening meal on a level equivalent to the miglitol group | insulin secretion ([1]; healthy adult male volunteers): inhibition of insulin secretion along with inhibition of hyperglycemia was seen the same as in the miglitol group | total GIP concentration ([1]; healthy adult male volunteers): increase in total GIP concentration was seen on a level equivalent to the miglitol group | total GLP-1 concentration ([1]; healthy adult male volunteers): increase in total GLP-1 concentration was seen on a level equivalent to the miglitol group
